Measurements from US20090311723A1, “FLUORESCENCE-BASED ASSAY FOR MONOACYLGLYCEROL LIPASE COMPATIBLE WITH INHIBITOR SCREENING” (WYETH, priority 2007, published 2009).

What was measured:
[1] = Stability of 7-HCA in assay buffer over time; assay type: physicochemical; details: 25° C.
Procedure: The stability of 7-HCA in assay buffer was monitored over time and found to be stable for at least 5 hours at 25° C.

[2] = molecular target: T1, recombinant human MGL protein (Homo sapiens, UniProt Q99685); test: Fluorescence assay of MGL inhibition with 7-HCA as substrate; assay type: biochemical; details: for IC50: 3 ng MGL, 10 μM 7-HCA, pH 8, 25° C., 60 minutes
T1 construct: a mixture of forward and reverse primers spanning the entire coding region; made in house; host or cells: E. coli BL21
T1 sequence (Q99685 1-303): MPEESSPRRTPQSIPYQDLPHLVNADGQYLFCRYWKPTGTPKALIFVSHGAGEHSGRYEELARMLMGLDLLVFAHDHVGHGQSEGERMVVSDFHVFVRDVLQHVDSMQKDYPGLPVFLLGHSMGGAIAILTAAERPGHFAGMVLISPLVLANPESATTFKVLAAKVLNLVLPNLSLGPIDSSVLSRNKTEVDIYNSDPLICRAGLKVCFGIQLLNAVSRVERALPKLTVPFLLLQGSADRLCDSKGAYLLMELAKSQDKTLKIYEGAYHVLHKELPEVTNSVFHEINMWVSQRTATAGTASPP
Procedure: For measuring MGL inhibition by compounds, 3 ng protein per assay were incubated with indicated concentrations of the compound in the presence of 10 mM 7-HCA for 60 minutes. The reactions were stopped and processed as described above. Results are presented as the mean±S.E. of triplicate measurements from at least two independent experiments. The IC50 values were calculated by […]™ Prism 3.02 program using a sigmoidal dose-response equation.
Inhibition of MGL activity by URB602 was studied by treating 3 ng of MGL protein with increasing concentrations of URB602 with 7-HCA as substrate at pH 8, and 25° C., for 60 minutes in a total volume of 50 μl.
According to FIG. 7, the assay was carried out by incubating 3 ng of MGL protein with 10 μM 7-HCA and indicated concentrations of compounds in 50 mM HEPES, pH 8, 1 mM EDTA and 10% DMSO, at 25° C. for 60 minutes. The percent inhibition of MGL activity was plotted against compound concentration, and the IC50 was calculated by fitting the curve to a non-linear regression equation using […]™ Prism 3.02. Each data point represents mean±SD (n=3) from at least 2 individual experiments.

MGL [3] = molecular target: T2, MGL (Rattus norvegicus, UniProt Q8R431); parameters: from tissue; host or cells: rat brain, periaqueductal grey, in vivo (reported from Hohmann 2005); details: micro-injection into periaqueductal grey, blocked by CB1 antagonist SR141716; cited from earlier work
T2 sequence (Q8R431 1-303): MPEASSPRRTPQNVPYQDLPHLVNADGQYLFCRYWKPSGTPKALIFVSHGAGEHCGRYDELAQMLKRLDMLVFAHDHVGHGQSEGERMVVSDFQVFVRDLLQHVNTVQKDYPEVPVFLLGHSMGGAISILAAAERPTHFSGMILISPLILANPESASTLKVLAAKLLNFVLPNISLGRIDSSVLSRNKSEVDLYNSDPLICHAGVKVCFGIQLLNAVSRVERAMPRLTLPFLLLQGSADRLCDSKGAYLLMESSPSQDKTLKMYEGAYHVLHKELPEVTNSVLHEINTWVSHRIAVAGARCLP

MGL [4] = molecular target: T2, MGL; details: Makara 2005; later demonstrated to be false positive (impurity); read-out: IC50 of MGL previously reported; cited from earlier work
[5] = substrate: C=CCCCCC(=O)Oc1ccc2ccc(=O)oc2c1; test: Rate of hydrolysis of fluorogenic substrates by MGL (Michaelis-Menten kinetics, 7-HC fluorescence); assay type: biochemical, human; details: other: 3 ng/well MGL, 10% DMSO, pH 8.0, room temperature, read after 10 minutes, ND = not detectable activity
Procedure: (§1) The assay was performed in a 384-well black plate (NUNC) in a total volume of 50 μl. A typical assay consisted of 3 ng of MGL protein, 10 mM 7-HCA substrate (prepared in DMSO) in assay buffer consisting of 50 mM HEPES, pH 8, 1 mM EDTA, and […] of inhibitor solution or DMSO (10% final concentration). The components were mixed and incubated on a shaker for 10-60 min and the plate was read in a fluorescence plate reader (SPECTRAMAX™-Gemini; Ex: 355 nm; Em: 460 nm). The reaction was carried out at 25° C., and the fluorescence was monitored in the kinetic mode. The fluorescence units were converted to amount of product based on the standard curve generated with 7-HC. The data were analyzed using GRAPHPAD™ Prism Version 3.02. The observed rate constants (apparent KM) were calculated using GRAPHPAD™ Prism 3.02 based on a Michaelis-Menten (one site binding hyperbola) equation Y=BmaxX/[Kd+X].
(§2) Table 3, shown below, depicts rates of hydrolysis for MGL with representative fluorogenic substrates. Rates were measured at reactions containing 3 ng/well MGL protein, a series of concentrations of above compounds in 10% DMSO, pH 8.0, and room temperature. The 7-HC fluorescence (λex=355 nm, λem=460 nm) was read after 10-minutes. The data were analyzed and the Vmax and Km calculated using the Michaelis-Menten equation. *ND means “not detectable activity.”
(§3) The kinetic constants, KM (apparent) and Vmax were calculated by determining the MGL activity with increasing substrate concentrations. 3 ng MGL protein were incubated with increasing 7-HCA concentrations, at pH 8, 25° C., for 10 minutes in a 384-well black plate, in a total volume of 50 μl. Specific activity of MGL was plotted against the substrate concentration and the data was fit to a non-linear regression equation (FIG. 6). […] The Lineweaver-Burk plot is shown as an insert within FIG. 6.
(§4) According to FIG. 6, a 50 μl MGL reaction, containing 3 ng/well MGL protein, the indicated concentrations of 7-HCA and 10% DMSO, was performed at room temperature. The 7-HC fluorescence (λex=355 nm, λem=460 nm) was read after 10-minutes. The data were analyzed and the Vmax and KM calculated using the Michaelis-Menten equation. A Lineweaver-Burk plot of 7-HCA hydrolysis by substrate is also shown.

[6] = substrate: CCCCC/C=C\C/C=C\C/C=C\C/C=C\CCCC(=O)Oc1ccc2ccc(=O)oc2c1; test: as above; assay type: biochemical, human; details: other: 3 ng/well MGL, 10% DMSO, pH 8.0, room temperature, read after 10 minutes, ND = not detectable activity
Procedure: as §1, §2, §3, §4

CCCCC/C=C\C/C=C\C/C=C\C/C=C\CCCC(=O)Oc1ccc2ccc(=O)oc2c1 [7-HCA, 7-Hydroxycoumarinyl-arachidonate]
stability in assay buffer [1]: at least 5 hours

CCCCC/C=C\C/C=C\C/C=C\C/C=C\CCCCN1C(=O)C=CC1=O [N-Arachidonyl Maleimide (NAM), N-Arachidonyl Maleimide]
IC50 [2]: 0.155 µM

O=C(Nc1cccc(-c2ccccc2)c1)OC1CCCCC1 [URB602]
IC50 [2]: 3.6 µM | IC50 ([2]; listed as URB-602): 3.1 µM | effect on stress-induced antinociception (MGL [3]): enhanced stress-induced antinociception

Cc1ccc(Nc2nc3ccc(C)cc3c(=O)o2)cc1 [URB754]
inhibition of MGL activity (negative control) ([2]; concentrations up to 100 μM): failing to inhibit MGL activity | IC50 (MGL [4]): 0.05 µM

B1: recombinant human MGL protein (Homo sapiens) (protein)
chain: MPEESSPRRTPQSIPYQDLPHLVNADGQYLFCRYWKPTGTPKALIFVSHGAGEHSGRYEELARMLMGLDLLVFAHDHVGHGQSEGERMVVSDFHVFVRDVLQHVDSMQKDYPGLPVFLLGHSMGGAIAILTAAERPGHFAGMVLISPLVLANPESATTFKVLAAKVLNLVLPNLSLGPIDSSVLSRNKTEVDIYNSDPLICRAGLKVCFGIQLLNAVSRVERALPKLTVPFLLLQGSADRLCDSKGAYLLMELAKSQDKTLKIYEGAYHVLHKELPEVTNSVFHEINMWVSQRTATAGTASPP
notes: a mixture of forward and reverse primers spanning the entire coding region; made in house; host or cells: E. coli BL21
Km [5]: 9.3 µM | Vmax [5]: 1.3 µmol/min/mg | Km [6]: 9.8 µM | Vmax [6]: 1.7 µmol/min/mg
